Holding throughout (type): functional, organism-based
Assay [1] deals with Plasmodium falciparum. Kind of assay: Antimalarial activity after 96hrs against Plasmodium falciparum GCO3 C2 mutant CRT/MDR1 by [3H]hypoxanthine uptake.
The test system of assay [2] is Plasmodium falciparum. The experiment in a line: Antimalarial activity after 96 hrs against Plasmodium falciparum GCO3 C4 mutant CRT/MDR1 by [3H]hypoxanthine uptake.
Assay [3] has as its system Plasmodium falciparum. The experiment in a line: Antimalarial activity after 96 hrs against Plasmodium falciparum GCO3 C6 mutant CRT/MDR1 by [3H]hypoxanthine uptake.
For assay [4], the system named is Plasmodium falciparum. The experiment in a line: Antimalarial activity after 96 hrs against Plasmodium falciparum GCO3 SDD mutant CRT/MDR1 by [3H]hypoxanthine uptake.
The subject of assay [5] is Plasmodium falciparum. The experiment in a line: Antimalarial activity after 96 hrs against Plasmodium falciparum GCO3 SND mutant CRT/MDR1 by [3H]hypoxanthine uptake.
The test system of assay [6] is Plasmodium falciparum. The experiment in a line: Antimalarial activity after 96 hrs against Plasmodium falciparum GCO3 CDY mutant CRT/MDR1 by [3H]hypoxanthine uptake.
Assay [7] relates to Plasmodium falciparum. The experiment in a line: Antimalarial activity after 96 hrs against Plasmodium falciparum 3BA6 by [3H]hypoxanthine uptake.
The test system of assay [8] is Plasmodium falciparum. The experiment in a line: Antimalarial activity against Plasmodium falciparum 3BA6 SDD with CRT and MDR1 mutation after 96 hrs in [3H]hypoxanthine uptake. The note with it: 3BA6, MDR1.
In assay [9] the test system is Plasmodium falciparum. Kind of assay: Antimalarial activity after 96 hrs against Plasmodium falciparum 3BA6 SND mutant CRT/MDR1 by [3H]hypoxanthine uptake. The note with it: 3BA6, MDR1.
In assay [10] the test system is Plasmodium falciparum. The experiment in a line: Antimalarial activity after 96 hrs against Plasmodium falciparum 3BA6 CDY mutant CRT/MDR1 by [3H]hypoxanthine uptake. The note with it: 3BA6, MDR1.
In assay [11] the test system is Plasmodium falciparum. The experiment in a line: Antimalarial activity after 96 hrs against azithromycin-resistant Plasmodium falciparum Dd2 by [3H]hypoxanthine uptake.
Assay [12] has as its system Plasmodium falciparum. Kind of assay: Antimalarial activity after 96 hrs against azithromycin-resistant Plasmodium falciparum 7G8 by [3H]hypoxanthine uptake.
Assay [13] deals with Plasmodium falciparum. Kind of assay: Antimalarial activity after 96 hrs against Plasmodium falciparum 7G8 C1 mutant CRT/MDR1 by [3H]hypoxanthine uptake. As to conditions: 7G8, MDR1.
Assay [14] deals with Plasmodium falciparum. The experiment in a line: Antimalarial activity after 96 hrs against Plasmodium falciparum Dd2 C1 mutant CRT/MDR1 by [3H]hypoxanthine uptake.
The test system of assay [15] is Plasmodium falciparum. The experiment in a line: Antimalarial activity after 48 hrs against Plasmodium falciparum 7G8 by [3H]hypoxanthine uptake.
In assay [16] the test system is Plasmodium falciparum. The experiment in a line: Antimalarial activity after 96 hrs against Plasmodium falciparum Dd2 by [3H]hypoxanthine uptake.
Assay [17] concerns Plasmodium falciparum. The experiment in a line: Antimalarial activity after 48 hrs against Plasmodium falciparum Dd2 by [3H]hypoxanthine uptake.
In assay [18] the test system is Plasmodium falciparum. Kind of assay: Antimalarial activity after 48 hrs against Plasmodium falciparum GCO3 by [3H]hypoxanthine uptake.
The subject of assay [19] is Plasmodium falciparum. Kind of assay: Antimalarial activity after 96hrs against Plasmodium falciparum 7G8 by [3H]hypoxanthine uptake.
Assay [20] has as its system Plasmodium falciparum. Kind of assay: Antimalarial activity after 96 hrs against Plasmodium falciparum GCO3 by [3H]hypoxanthine uptake.
Assay [21] concerns Plasmodium falciparum. Kind of assay: Antimalarial activity after 96 hrs against Plasmodium falciparum Dd2 T76K1 mutant CRT/MDR1 by [3H]hypoxanthine uptake.
Assay [22] relates to Plasmodium falciparum. The experiment in a line: Antimalarial activity after 96 hrs against Plasmodium falciparum 7G8 T76K1 mutant CRT/MDR1 by [3H]hypoxanthine uptake. The note with it: 7G8, MDR1.

Usually IC50 stands for the point on the concentration scale where inhibition reaches its midpoint. A high value points to lower potency. For `CC[C@H]1OC(=O)[C@H](C)[C@@H](O[C@H]2C[C@@](C)(OC)[C@@H](O)[C@H](C)O2)[C@H](C)[C@@H](O[C@@H]2O[C@H](C)C[C@H](N(C)C)[C@H]2O)[C@](C)(O)C[C@@H](C)CN(C)[C@H](C)[C@@H](O)[C@]1(C)O` [AZITHROMYCIN], the IC50 with Plasmodium falciparum [1] came out at 48 nM; in the assay on Plasmodium falciparum [2], 66.7 nM; in the assay on Plasmodium falciparum [3] it was 76.7 nM; with Plasmodium falciparum [4], 63.3 nM; with Plasmodium falciparum [5] it was 47.8 nM; in the assay with Plasmodium falciparum [6], 70.2 nM. Further, the IC50 with Plasmodium falciparum [7] was found to be 180 nM; in the assay with Plasmodium falciparum [8] it was 155 nM; with Plasmodium falciparum [9], 158 nM; in the assay with Plasmodium falciparum [10], 194 nM; in the assay with Plasmodium falciparum [11] it was 1940 nM; in the assay on Plasmodium falciparum [12], 3970 nM. Moreover, the IC50 with Plasmodium falciparum [13] amounted to 142 nM; in the assay with Plasmodium falciparum [14] it was 95.7 nM; with Plasmodium falciparum [15] it was 15700 nM; in the assay with Plasmodium falciparum [16], 103 nM; in the assay on Plasmodium falciparum [17] it was 3460 nM; in the assay with Plasmodium falciparum [18] it was 22600 nM. In addition, the IC50 in the assay on Plasmodium falciparum [19] was determined as 228 nM; in the assay with Plasmodium falciparum [20] it was 43.3 nM; in the assay with Plasmodium falciparum [21] it was 122 nM; with Plasmodium falciparum [22] it was 115 nM.

In the case of `Oc1cc(Cl)ccc1Oc1ccc(Cl)cc1Cl` [TRICLOSAN], the IC50 in the assay on Plasmodium falciparum [15] came out at 774 nM; with Plasmodium falciparum [16], 4190 nM; in the assay with Plasmodium falciparum [17], 6260 nM; with Plasmodium falciparum [18] it was 2710 nM; in the assay with Plasmodium falciparum [19], 424 nM; with Plasmodium falciparum [20], 1530 nM.

For `CN(C)[C@@H]1C(O)=C(C(N)=O)C(=O)[C@@]2(O)C(O)=C3C(=O)c4c(O)cccc4[C@@](C)(O)[C@H]3C[C@@H]12` [TETRACYCLINE], the IC50 with Plasmodium falciparum [11] was found to be 324 nM; in the assay on Plasmodium falciparum [12] it was 365 nM; in the assay with Plasmodium falciparum [16] it was 397 nM; with Plasmodium falciparum [19], 697 nM.

For `C[C@H]1c2cccc(O)c2C(=O)C2=C(O)[C@]3(O)C(=O)C(C(N)=O)=C(O)[C@@H](N(C)C)[C@@H]3[C@@H](O)[C@@H]21` [DOXYCYCLINE], the IC50 stood at 302 nM with Plasmodium falciparum [11], 603 nM in the assay with Plasmodium falciparum [12], 432 nM with Plasmodium falciparum [16] and 1440 nM with Plasmodium falciparum [19].

For `CC[C@H]1OC(=O)[C@H](C)[C@@H](O[C@H]2C[C@@](C)(OC)[C@@H](O)[C@H](C)O2)[C@H](C)[C@@H](O[C@@H]2O[C@H](C)C[C@H](N(C)C)[C@H]2O)[C@](C)(O)C[C@@H](C)C(=O)[C@H](C)[C@@H](O)[C@]1(C)O` [ERYTHROMYCIN], the IC50 in the assay on Plasmodium falciparum [11] was 20300 nM; in the assay with Plasmodium falciparum [12], 39500 nM; in the assay with Plasmodium falciparum [16], 9400 nM; in the assay on Plasmodium falciparum [19] it was 34700 nM.

For `C=C(NC(=O)C(=C)NC(=O)c1csc(C2=N[C@@H]3c4csc(n4)[C@H]4NC(=O)c5csc(n5)[C@H]([C@](C)(O)[C@@H](C)O)NC(=O)[C@H]5CSC(=N5)/C(=C/C)NC(=O)[C@H]([C@@H](C)O)NC(=O)c5csc(n5)[C@]3(CC2)NC(=O)[C@H](C)NC(=O)C(=C)NC(=O)[C@H](C)NC(=O)[C@H]([C@@H](C)CC)N[C@@H]2C=Cc3c([C@H](C)O)cc(nc3[C@H]2O)C(=O)O[C@@H]4C)n1)C(N)=O` [THIOSTREPTON], the concentration for half-maximal inhibition (IC50) amounted to 175 nM in the assay with Plasmodium falciparum [11]; 217 nM in the assay on Plasmodium falciparum [12]; 688 nM in the assay with Plasmodium falciparum [15]; 292 nM with Plasmodium falciparum [16]; 2110 nM with Plasmodium falciparum [17]; 2280 nM in the assay on Plasmodium falciparum [18]. Besides, the IC50 in the assay on Plasmodium falciparum [19] amounted to 555 nM; in the assay on Plasmodium falciparum [20] it was 916 nM.

Source of the values: ChEMBL document CHEMBL1156420, “In vitro efficacy, resistance selection, and structural modeling studies implicate the malarial parasite apicoplast as the target of azithromycin” (J Biol Chem, 2007).
